The text below walks through data of patent US7960408B2, “Quinolinyl and benzothiazolyl modulators” (Amgen Inc., priority 2000, dated 2011).

A value given as a limit tells only on which side of the number the result lay.

Tested on in the first data set: not given
Test: not given
Conditions: not given
Broadly, the melting point is the temperature, or range, at which the solid turns liquid. For `O=C(O)c1ccc2ncc(Oc3c(Cl)cc(NS(=O)(=O)c4ccc(Cl)cc4Cl)cc3Cl)cc2c1` [Compound 47, 3-[2,6-Dichloro-4-(2,4-dichloro-benzenesulfonylamino)-phenoxy]-quinoline-6-carboxylic acid], the melting point was 228 to 232 °C. `O=C(O)c1cccc2cc(Oc3c(Cl)cc(NS(=O)(=O)c4ccc(Cl)cc4Cl)cc3Cl)cnc12` [Compound 48, 3-[2,6-Dichloro-4-(2,4-dichloro-benzenesulfonylamino)-phenoxy]-quinoline-8-carboxylic acid] registered a melting point of 263 to 266 °C. On the same count and under the same terms, under `COc1ccc2nc(Oc3c(Cl)cc(NS(=O)(=O)c4ccc(C(F)(F)F)cc4Cl)cc3Cl)sc2c1` [Compound 106, 2-Chloro-N-[3,5-dichloro-4-(6-methoxybenzothiazol-2-yloxy)-phenyl]-4-trifluoromethyl-benzenesulfonamide] stands 164 to 165 °C.

Another data set deals with T1, PPARγ (Homo sapiens, UniProt P37231).
T1 construct: made in house
T1 sequence (P37231 1-505): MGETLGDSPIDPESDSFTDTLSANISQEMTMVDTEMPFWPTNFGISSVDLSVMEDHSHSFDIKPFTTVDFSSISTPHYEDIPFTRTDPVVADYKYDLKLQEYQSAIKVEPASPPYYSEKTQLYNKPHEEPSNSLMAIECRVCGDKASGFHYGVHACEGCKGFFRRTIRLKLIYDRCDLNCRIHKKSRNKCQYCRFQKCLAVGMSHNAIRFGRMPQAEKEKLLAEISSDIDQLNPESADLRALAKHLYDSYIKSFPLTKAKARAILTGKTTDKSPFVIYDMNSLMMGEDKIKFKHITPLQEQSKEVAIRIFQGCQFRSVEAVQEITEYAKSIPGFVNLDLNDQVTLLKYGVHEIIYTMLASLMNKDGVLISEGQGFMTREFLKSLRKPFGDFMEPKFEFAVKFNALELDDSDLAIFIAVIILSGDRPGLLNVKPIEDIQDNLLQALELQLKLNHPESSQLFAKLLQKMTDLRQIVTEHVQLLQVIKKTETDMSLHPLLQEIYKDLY
The data set can be described thus: PPARγ ligand binding assay utilizing [3H]-BRL 49653 as the radioligand. The following applies: concentration required to reduce by 50% the specific binding of [3H]-BRL 49653. An excerpt: The compounds of the present invention can be evaluated for modulation of the PPARγ receptor using assays such as those described in Jiang, et al., Nature 391:82-86 (1998), Ricote, et al., Nature 391:79-82 (1998) and Lehmann, et al., J. Biol. Chem. 270(12): 12953-12956 (1995). Alternatively, the compounds can be evaluated for their ability to displace radiolabeled BRL 49653 from a PPARγ-GST fusion protein as follows:
PPARγ-GST fusion protein (prepared according to standard procedures), [^3H]—BRL 49653 having 50 Ci/mmol specific activity, Polyfiltronics Unifilter 350 filtration plate and glutathione-Sepharose® beads (from Pharmacia: washed twice with 10× binding buffer in which BSA and DTI can be left out).
Binding buffer (10 mM Tris-HCl, pH 8.0, 50 mM KCI, 10 mM DTT, 0.02% BSA and 0.01% NP-40) is added in 80-μL amounts to the wells of the filtration plate. The test compound is then added in 10 μL of DMSO. The PPARγ-GST fusion protein and radiolabeled BRL compound are premixed in binding buffer containing 10 mM DTT and added in 10-μL amounts to the wells of the plate to provide final concentrations of 1 μg/well of PPARγ-GST fusion protein and 10 nM [^3H]—BRL 49653 compound. The plate is incubated for 15 min. Glutathione-agarose bead is added in 50 μL of binding buffer, and the plate is vigorously shaken for one hour. The plate is washed four times with 200 μL/well of binding buffer (without BSA and DTT). The bottom of the plate is sealed and 200 μL/well of scintillation cocktail is added. The top of the plate is then sealed and the radioactivity is determined.
IC50 values are defined as the concentration of test compounds required to reduce by 50% the specific binding of [^3H]—BRL 49653 and are represented by (+) <30 μM; (++) <10 μM; (+++) <1 μM.
Broadly, the IC50 is the midpoint of a concentration-inhibition curve. The compound `O=C(O)c1ccc2ncc(Oc3c(Cl)cc(NS(=O)(=O)c4ccc(Cl)cc4Cl)cc3Cl)cc2c1` [Compound 47, 3-[2,6-Dichloro-4-(2,4-dichloro-benzenesulfonylamino)-phenoxy]-quinoline-6-carboxylic acid] had an IC50 below 1000 nM. For `O=C(O)c1cccc2cc(Oc3c(Cl)cc(NS(=O)(=O)c4ccc(Cl)cc4Cl)cc3Cl)cnc12` [Compound 48, 3-[2,6-Dichloro-4-(2,4-dichloro-benzenesulfonylamino)-phenoxy]-quinoline-8-carboxylic acid], the IC50 is below 1000 nM. Consider `COc1ccc2nc(Oc3c(Cl)cc(NS(=O)(=O)c4ccc(C(F)(F)F)cc4Cl)cc3Cl)sc2c1` [Compound 106, 2-Chloro-N-[3,5-dichloro-4-(6-methoxybenzothiazol-2-yloxy)-phenyl]-4-trifluoromethyl-benzenesulfonamide], for which the IC50 was below 1000 nM. Still for that read-out and setting: under `COc1ccc2nc(Oc3cc(Cl)cc(NS(=O)(=O)c4ccc(Cl)cc4Cl)c3)sc2c1` [Compound 308, 2,4-Dichloro-N-[3-chloro-5-(6-methoxy-benzothiazol-2-yloxy)-phenyl]-benzenesulfonamide] stands below 1000 nM. Still for that read-out and setting: under `CC(C)(C)c1ccc(S(=O)(=O)Nc2cc(Cl)cc(Oc3nc4cc(Cl)ccc4s3)c2)cc1` [Compound 501, 4-tert-Butyl-N-[3-chloro-5-(5-chloro-benzothiazole-2-yloxy)]-benzenesulfonamide] stands above 30000 nM; under `CS(=O)(=O)c1ccc2sc(Oc3c(Cl)cc(NS(=O)(=O)c4ccc(C(F)(F)F)cc4Cl)cc3Cl)nc2c1` [Compound 458, 2-Chloro-N-[3,5-dichloro-4-(5-methanesulfonyl-benzothiazol-2-yloxy)-phenyl]-4-trifluoromethyl-benzenesulfonamide], below 1000 nM. As to `O=S(=O)(Nc1cc(Cl)c(Nc2nc3ccc(Cl)cc3s2)c(Cl)c1)c1ccc(Cl)cc1Cl` [Compound 71], the IC50 was below 1000 nM. On the same count and under the same terms, under `O=[N+]([O-])c1ccc2nc(Oc3ccc(NS(=O)(=O)c4ccc(C(F)(F)F)cc4Cl)cc3Cl)sc2c1` [Compound 442, 2-Chloro-N-[3-chloro-4-(6-nitro-benzothiazol-2-yloxy)-phenyl]-4-trifluoromethyl-benzenesulfonamide] stands below 1000 nM. On the same count and under the same terms, under `O=S(=O)(Nc1cc(Cl)c(Cc2cc3ccccc3cn2)c(Cl)c1)c1ccc(Cl)cc1Cl` [Compound 238, 2,4-Dichloro-N-(3,5-dichloro-4-isoquinolin-3-ylmethyl-phenyl)-benzenesulfonamide] stands below 1000 nM; under `O=S(=O)(Nc1cc(Cl)c(Cc2cc3ccccc3cn2)c(Cl)c1)c1ccc(C(F)(F)F)cc1Cl` [Compound 237, 2-Chloro-N-(3,5-dichloro-4-isoquinolin-3-ylmethyl-phenyl)-4-trifluoromethyl-benzenesulfonamide], below 1000 nM.

As to `COC(=O)c1cccc2cc(Oc3c(Cl)cc(NS(=O)(=O)c4ccc(Cl)cc4Cl)cc3Cl)cnc12` [Compound 46, 3-[2,6-Dichloro-4-(2,4-dichloro-benzenesulfonylamino)-phenoxy]-quinoline-8-carboxylic acid methyl ester], the IC50 is below 1000 nM.

As to `CC(=O)c1ccc(S(=O)(=O)Nc2cc(Cl)c(Oc3nc4ccc(Cl)cc4s3)c(Cl)c2)cc1` [Compound 436, 4-Acetyl-N-[3,5-dichloro-4-(6-chloro-benzothiazol-2-yloxy)-phenyl]-benzenesulfonamide], the IC50 is 1000 to 10000 nM. The same measure, in the same setting: with `Cc1cc(S(=O)(=O)Nc2cc(Cl)cc(Oc3nc4ccc(F)cc4s3)c2)c(Cl)cc1Cl` [Compound 306, 2,4-Dichloro-N-[3-chloro-5-(6-fluoro-benzothiazol-2-yloxy)-phenyl]-5-methyl-benzenesulfonamide] the figure was below 1000 nM.

With `O=S(=O)(Nc1cc(Cl)cc(Oc2nc3cc(-c4nnn[nH]4)ccc3s2)c1)c1ccc(C(F)(F)F)cc1Cl` [Compound 289, 2-Chloro-N-{3-chloro-5-[5-(1H-tetrazol-5-yl)-benzothiazol-2-yloxy]-phenyl}-4-trifluoromethyl-benzenesulfonamide], the IC50 was below 1000 nM. The compound `Cc1cc(S(=O)(=O)Nc2cc(Cl)cc(Oc3nc4c(C)cccc4s3)c2)c(Cl)cc1Cl` [Compound 295, 2,4-Dichloro-N-[3-chloro-5-(4-methyl-benzothiazol-2-yloxy)-phenyl]-5-methyl-benzenesulfonamide] returned an IC50 of 1000 to 10000 nM.

`COc1cccc2sc(Oc3cc(Cl)cc(NS(=O)(=O)c4ccc(Cl)cc4Cl)c3)nc12` [Compound 297, 2,4-Dichloro-N-[3-chloro-5-(4-methoxy-benzothiazol-2-yloxy)-phenyl]-benzenesulfonamide] displayed an IC50 of 1000 to 10000 nM.

For `Cc1cccc2sc(Oc3cc(Cl)cc(NS(=O)(=O)c4ccc(Cl)cc4Cl)c3)nc12` [Compound 294, 2,4-Dichloro-N-[3-chloro-5-(4-methyl-benzothiazol-2-yloxy)-phenyl]-benzenesulfonamide], the IC50 fell in the range of 10000 to 30000 nM.

The compound `O=S(=O)(Nc1cc(Cl)cc(Oc2nc3cc(Cl)ccc3s2)c1)c1ccc(C(F)(F)F)cc1Cl` [Compound 283, 2-Chloro-N-[3-chloro-5-(5-chloro-benzothiazol-2-yloxy)-phenyl]-4-trifluoromethyl-benzenesulfonamide] registered an IC50 of 1000 to 10000 nM. For the compound `Cc1cc(S(=O)(=O)Nc2cc(Cl)cc(Oc3nc4cc(C#N)ccc4s3)c2)c(Cl)cc1Cl` [Compound 288, 2,4-Dichloro-N-[3-chloro-5-(5-cyano-benzothiazol-2-yloxy)-phenyl]-5-methyl-benzenesulfonamide], the IC50 is below 1000 nM. As to `O=S(=O)(Nc1cc(Cl)c([S+]([O-])c2cnc3ccccc3c2)c(Cl)c1)c1ccccc1` (stereo not shown) [Compound 5.3], the IC50 fell in the range of 1000 to 10000 nM.

The compound `COc1ccc2nc(Oc3cc(Cl)cc(NS(=O)(=O)c4cc(C)c(Cl)cc4Cl)c3)sc2c1` [Compound 309, 2,4-Dichloro-N-[3-chloro-5-(6-methoxy-benzothiazol-2-yloxy)-phenyl]-5-methyl-benzenesulfonamide] returned an IC50 below 1000 nM. Still for that read-out and setting: under `CS(=O)(=O)c1ccc2nc(Oc3c(Cl)cc(NS(=O)(=O)c4ccc(C(F)(F)F)cc4Cl)cc3Cl)sc2c1` [Compound 441, 2-Chloro-N-[3,5-dichloro-4-(6-methanesulfonyl-benzothiazol-2-yloxy)-phenyl]-4-trifluoromethyl-benzenesulfonamide] stands below 1000 nM; under `O=S(=O)(Nc1cc(Cl)cc(Oc2nc3ccc(F)cc3s2)c1)c1ccc(C(F)(F)F)cc1Cl` [Compound 304, 2-Chloro-N-[3-chloro-5-(6-fluoro-benzothiazol-2-yloxy)-phenyl]-4-trifluoromethyl-benzenesulfonamide], below 1000 nM; under `Cc1ccc2nc(Nc3c(Cl)cc(NS(=O)(=O)c4ccc(C(F)(F)F)cc4Cl)cc3Cl)sc2c1` [Compound 86], below 1000 nM.

`O=S(=O)(Nc1cc(Cl)cc(Oc2nc3ccc(Cl)cc3s2)c1)c1ccc(C(F)(F)F)cc1Cl` [Compound 302, 2-Chloro-N-[3-chloro-5-(6-chloro-benzothiazol-2-yloxy)-phenyl]-4-trifluoromethyl-benzenesulfonamide] displayed an IC50 below 1000 nM.

`O=S(=O)(Nc1cc(Cl)cc(Cc2nc3cc(Cl)ccc3s2)c1)c1ccc(Cl)cc1Cl` [Compound 332, 2,4-Dichloro-N-[3-chloro-5-(5-chloro-benzothiazol-2-ylmethyl)-phenyl]-benzenesulfonamide] returned an IC50 below 1000 nM. On the same count and under the same terms, under `O=S(=O)(Nc1cc(Cl)c([S+]([O-])c2cnc3ccccc3c2)c(Cl)c1)c1ccc(Cl)cc1Cl` (stereo not shown) [Compound 5.2] stands below 1000 nM; under `CS(=O)(=O)Nc1ccc2nc(Oc3c(Cl)cc(NS(=O)(=O)c4ccc(C(F)(F)F)cc4Cl)cc3Cl)sc2c1` [Compound 440, 2-Chloro-N-[3,5-dichloro-4-(6-methanesulfonylamino-benzothiazol-2-yloxy)-phenyl]-4-trifluoromethyl-benzenesulfonamide], below 1000 nM.
